{"source": "patent US20040014215A1", "about": "“Synchronised arabidopsis cell suspensions and uses thereof” (priority 2000, published 2004)", "test_system": "CDK-b1", "test": "Northern expression analysis after aphidicolin synchronisation of MM1 (maximum signal = 100%)", "format": "cell-based, Arabidopsis thaliana", "experimental": "was analysed following the expression level of known cell cycle regulated genes. Synchronisation was performed as described in Example 2A, with the exception that two 7-day old cultures of the weekly sub-cultured cell suspension (210 ml each) were combined. 40 ml of combined culture was transferred into 200 ml of fresh MSS-medium in each of 10 separate flasks. After incubation for 24 hrs under conditions as described in Example 1, in the presence of 4.16 μg/ml aphidicolin, cells from 5 pooled flasks were washed through a nylon net (mesh size 47 μm) and washed with 2 litre MSS medium and shaken vigorously to remove the aphidicolin. Cells were transferred into a 50 ml plastic tube, washed again with MSS medium and centrifuged at 2500 rpm for 1 min (1075 rcf). Cells were resuspended and combined with the cells from the other 5 flasks similarly washed in a total volume of 300 ml fresh MSS-medium. 30 ml of this cell suspension was then added to 200 ml fresh MSS-medium in each of 10 separate flasks.\n1) 25 ml for Northern blot (transferred into 50 ml plastic tube, centrifuged at 2500 rpm for 1 min, the supernatant discarded, and the cell pellet shock-frozen in liquid nitrogen before storing in −80° C. freezer)\nSamples were collected at the time point indicated (time of removal of aphidicolin equals time point 0 hrs) and were analysed for expression of the following genes by Northern blot:\nCDK-b1 (also called Cdc2b/CDK2b: Accession no. ATCDC2BP)\nFor each probe the maximum hybridisation signal obtained was defined as 100%.", "key": {"[1]": {"conditions": "0 hrs after aphidicolin removal"}, "[2]": {"conditions": "2 hrs after aphidicolin removal"}, "[3]": {"conditions": "4 hrs after aphidicolin removal"}, "[4]": {"conditions": "6 hrs after aphidicolin removal"}, "[5]": {"conditions": "8 hrs after aphidicolin removal"}, "[6]": {"conditions": "10 hrs after aphidicolin removal"}, "[7]": {"conditions": "12 hrs after aphidicolin removal"}, "[8]": {"conditions": "14 hrs after aphidicolin removal"}, "[9]": {"conditions": "16 hrs after aphidicolin removal"}, "[10]": {"conditions": "18 hrs after aphidicolin removal"}, "[11]": {"conditions": "20 hrs after aphidicolin removal"}, "[12]": {"conditions": "22 hrs after aphidicolin removal"}, "[13]": {"conditions": "24 hrs after aphidicolin removal"}, "[14]": {"conditions": "26 hrs after aphidicolin removal"}, "[15]": {"conditions": "28 hrs after aphidicolin removal"}, "[16]": {"conditions": "30 hrs after aphidicolin removal"}}, "data": [{"smiles": "C[C@@]1(CO)[C@H](O)CC[C@@]2(C)[C@H]1CC[C@H]1C[C@@H]3C[C@@]12CC[C@]3(O)CO", "note": "[aphidicolin]", "values": [{"measurement": "CDK-b1 %", "setting": "[1]", "result": 34.26, "unit": "%"}, {"measurement": "CDK-b1 Band intensity", "setting": "[1]", "result": 500}, {"measurement": "CDK-b1 %", "setting": "[2]", "result": 57.86, "unit": "%"}, {"measurement": "CDK-b1 Band intensity", "setting": "[2]", "result": 844}, {"measurement": "CDK-b1 %", "setting": "[3]", "result": 69.78, "unit": "%"}, {"measurement": "CDK-b1 Band intensity", "setting": "[3]", "result": 1018}, {"measurement": "CDK-b1 %", "setting": "[4]", "result": 74.34, "unit": "%"}, {"measurement": "CDK-b1 Band intensity", "setting": "[4]", "result": 1085}, {"measurement": "CDK-b1 %", "setting": "[5]", "result": 79.46, "unit": "%"}, {"measurement": "CDK-b1 Band intensity", "setting": "[5]", "result": 1160}, {"measurement": "CDK-b1 %", "setting": "[6]", "result": 96.41, "unit": "%"}, {"measurement": "CDK-b1 Band intensity", "setting": "[6]", "result": 1407}, {"measurement": "CDK-b1 %", "setting": "[7]", "result": 99.31, "unit": "%"}, {"measurement": "CDK-b1 Band intensity", "setting": "[7]", "result": 1450}, {"measurement": "CDK-b1 %", "setting": "[8]", "result": 100.0, "unit": "%"}, {"measurement": "CDK-b1 Band intensity", "setting": "[8]", "result": 1459}, {"measurement": "CDK-b1 %", "setting": "[9]", "result": 73.89, "unit": "%"}, {"measurement": "CDK-b1 Band intensity", "setting": "[9]", "result": 1078}, {"measurement": "CDK-b1 %", "setting": "[10]", "result": 51.49, "unit": "%"}, {"measurement": "CDK-b1 Band intensity", "setting": "[10]", "result": 751}, {"measurement": "CDK-b1 %", "setting": "[11]", "result": 58.87, "unit": "%"}, {"measurement": "CDK-b1 Band intensity", "setting": "[11]", "result": 859}, {"measurement": "CDK-b1 %", "setting": "[12]", "result": 42.07, "unit": "%"}, {"measurement": "CDK-b1 Band intensity", "setting": "[12]", "result": 614}, {"measurement": "CDK-b1 %", "setting": "[13]", "result": 30.65, "unit": "%"}, {"measurement": "CDK-b1 Band intensity", "setting": "[13]", "result": 447}, {"measurement": "CDK-b1 %", "setting": "[14]", "result": 49.74, "unit": "%"}, {"measurement": "CDK-b1 Band intensity", "setting": "[14]", "result": 726}, {"measurement": "CDK-b1 %", "setting": "[15]", "result": 50.87, "unit": "%"}, {"measurement": "CDK-b1 Band intensity", "setting": "[15]", "result": 742}, {"measurement": "CDK-b1 %", "setting": "[16]", "result": 57.47, "unit": "%"}, {"measurement": "CDK-b1 Band intensity", "setting": "[16]", "result": 839}]}]}
